{"source": "PubChem BioAssay (NCI)", "assay_in_all_cases": "growth of human tumour cells (NCI), 48 h", "key": {"SK-MEL-2 melanoma": {"tested_on": "SK-MEL-2 melanoma"}, "OVCAR-8 ovarian": {"tested_on": "OVCAR-8 ovarian"}, "SK-OV-3 ovarian": {"tested_on": "SK-OV-3 ovarian"}, "NCI-H460 lung": {"tested_on": "NCI-H460 lung"}, "SNB-75 CNS": {"tested_on": "SNB-75 CNS"}, "SNB-78 CNS": {"tested_on": "SNB-78 CNS"}, "SF-539 CNS": {"tested_on": "SF-539 CNS"}, "OVCAR-5 ovarian": {"tested_on": "OVCAR-5 ovarian"}, "HL-60(TB) leukemia": {"tested_on": "HL-60(TB) leukemia"}, "CAKI-1 renal": {"tested_on": "CAKI-1 renal"}, "IGROV1 ovarian": {"tested_on": "IGROV1 ovarian"}, "MALME-3M melanoma": {"tested_on": "MALME-3M melanoma"}, "SF-268 CNS": {"tested_on": "SF-268 CNS"}, "LOX IMVI melanoma": {"tested_on": "LOX IMVI melanoma"}, "DMS 273 small cell lung": {"tested_on": "DMS 273 small cell lung"}, "MOLT-4 leukemia": {"tested_on": "MOLT-4 leukemia"}, "EKVX NSCLC": {"tested_on": "EKVX NSCLC"}, "DLD-1 colon": {"tested_on": "DLD-1 colon"}, "U251 CNS": {"tested_on": "U251 CNS"}, "COLO 205 colon": {"tested_on": "COLO 205 colon"}}, "note": "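Grown in 96-well plates, cells were treated for 48 hours with each compound at five concentrations. Insufficient inhibition: endpoint recorded as highest concentration tested. TGI marks complete inhibition of growth.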", "data": [{"compound": "COc1cc(C2c3cc4c(cc3OC3(O)COC(=O)C23)OCO4)cc(OC)c1OC", "note": "(configuration not stated)", "values": [{"measurement": "TGI", "setting": "SK-MEL-2 melanoma", "result": "> 100", "unit": "µM"}, {"measurement": "TGI", "setting": "OVCAR-8 ovarian", "result": "> 100", "unit": "µM"}, {"measurement": "TGI", "setting": "SK-OV-3 ovarian", "result": 79, "unit": "µM"}, {"measurement": "TGI", "setting": "NCI-H460 lung", "result": "> 100", "unit": "µM"}, {"measurement": "TGI", "setting": "SNB-75 CNS", "result": 54.5, "unit": "µM"}, {"measurement": "TGI", "setting": "SNB-78 CNS", "result": "> 100", "unit": "µM"}, {"measurement": "TGI", "setting": "SF-539 CNS", "result": 79.3, "unit": "µM"}, {"measurement": "TGI", "setting": "OVCAR-5 ovarian", "result": "> 100", "unit": "µM"}, {"measurement": "TGI", "setting": "HL-60(TB) leukemia", "result": 97.7, "unit": "µM"}, {"measurement": "TGI", "setting": "CAKI-1 renal", "result": "> 100", "unit": "µM"}, {"measurement": "TGI", "setting": "IGROV1 ovarian", "result": "> 100", "unit": "µM"}, {"measurement": "TGI", "setting": "MALME-3M melanoma", "result": "> 100", "unit": "µM"}, {"measurement": "TGI", "setting": "SF-268 CNS", "result": "> 100", "unit": "µM"}, {"measurement": "TGI", "setting": "LOX IMVI melanoma", "result": "> 100", "unit": "µM"}, {"measurement": "TGI", "setting": "DMS 273 small cell lung", "result": "> 100", "unit": "µM"}, {"measurement": "TGI", "setting": "MOLT-4 leukemia", "result": "> 100", "unit": "µM"}, {"measurement": "TGI", "setting": "EKVX NSCLC", "result": "> 100", "unit": "µM"}, {"measurement": "TGI", "setting": "DLD-1 colon", "result": "> 100", "unit": "µM"}, {"measurement": "TGI", "setting": "U251 CNS", "result": "> 100", "unit": "µM"}]}, {"compound": "CC(=O)Nc1ccc(C2=N/C(=C\\c3ccc(Cl)c(Cl)c3)C(=O)O2)cc1", "values": [{"measurement": "TGI", "setting": "SK-MEL-2 melanoma", "result": "> 100", "unit": "µM"}, {"measurement": "TGI", "setting": "OVCAR-8 ovarian", "result": "> 100", "unit": "µM"}, {"measurement": "TGI", "setting": "SK-OV-3 ovarian", "result": "> 100", "unit": "µM"}, {"measurement": "TGI", "setting": "NCI-H460 lung", "result": "> 100", "unit": "µM"}, {"measurement": "TGI", "setting": "SNB-75 CNS", "result": "> 100", "unit": "µM"}, {"measurement": "TGI", "setting": "SNB-78 CNS", "result": "> 100", "unit": "µM"}, {"measurement": "TGI", "setting": "SF-539 CNS", "result": "> 100", "unit": "µM"}, {"measurement": "TGI", "setting": "OVCAR-5 ovarian", "result": "> 100", "unit": "µM"}, {"measurement": "TGI", "setting": "HL-60(TB) leukemia", "result": "> 100", "unit": "µM"}, {"measurement": "TGI", "setting": "CAKI-1 renal", "result": "> 100", "unit": "µM"}, {"measurement": "TGI", "setting": "IGROV1 ovarian", "result": "> 100", "unit": "µM"}, {"measurement": "TGI", "setting": "MALME-3M melanoma", "result": "> 100", "unit": "µM"}, {"measurement": "TGI", "setting": "SF-268 CNS", "result": "> 100", "unit": "µM"}, {"measurement": "TGI", "setting": "LOX IMVI melanoma", "result": "> 100", "unit": "µM"}, {"measurement": "TGI", "setting": "DMS 273 small cell lung", "result": "> 100", "unit": "µM"}, {"measurement": "TGI", "setting": "MOLT-4 leukemia", "result": "> 100", "unit": "µM"}, {"measurement": "TGI", "setting": "COLO 205 colon", "result": "> 100", "unit": "µM"}, {"measurement": "TGI", "setting": "EKVX NSCLC", "result": "> 100", "unit": "µM"}, {"measurement": "TGI", "setting": "DLD-1 colon", "result": "> 100", "unit": "µM"}, {"measurement": "TGI", "setting": "U251 CNS", "result": "> 100", "unit": "µM"}]}, {"compound": "COc1ccc2c(C)cc(N/N=C/c3sccc3C)nc2c1", "values": [{"measurement": "TGI", "setting": "SK-MEL-2 melanoma", "result": 29.8, "unit": "µM"}, {"measurement": "TGI", "setting": "OVCAR-8 ovarian", "result": 30.3, "unit": "µM"}, {"measurement": "TGI", "setting": "SK-OV-3 ovarian", "result": 31.9, "unit": "µM"}, {"measurement": "TGI", "setting": "SNB-75 CNS", "result": 26.1, "unit": "µM"}, {"measurement": "TGI", "setting": "SF-539 CNS", "result": 27.5, "unit": "µM"}, {"measurement": "TGI", "setting": "OVCAR-5 ovarian", "result": 28.1, "unit": "µM"}, {"measurement": "TGI", "setting": "HL-60(TB) leukemia", "result": "> 100", "unit": "µM"}, {"measurement": "TGI", "setting": "IGROV1 ovarian", "result": 27.4, "unit": "µM"}, {"measurement": "TGI", "setting": "MALME-3M melanoma", "result": 20.8, "unit": "µM"}, {"measurement": "TGI", "setting": "SF-268 CNS", "result": 85.9, "unit": "µM"}, {"measurement": "TGI", "setting": "LOX IMVI melanoma", "result": 21.5, "unit": "µM"}, {"measurement": "TGI", "setting": "MOLT-4 leukemia", "result": 48.6, "unit": "µM"}, {"measurement": "TGI", "setting": "COLO 205 colon", "result": 17.9, "unit": "µM"}, {"measurement": "TGI", "setting": "U251 CNS", "result": 51.9, "unit": "µM"}]}, {"compound": "Nc1ccc2cc(S(=O)(=O)O)cc(O)c2c1N=Nc1ccc(NC(=O)Nc2ccc(N=Nc3c(N)ccc4cc(S(=O)(=O)O)cc(O)c34)c(S(=O)(=O)O)c2)cc1S(=O)(=O)O", "values": [{"measurement": "TGI", "setting": "SK-MEL-2 melanoma", "result": "> 100", "unit": "µM"}, {"measurement": "TGI", "setting": "OVCAR-8 ovarian", "result": "> 100", "unit": "µM"}, {"measurement": "TGI", "setting": "SK-OV-3 ovarian", "result": "> 100", "unit": "µM"}, {"measurement": "TGI", "setting": "NCI-H460 lung", "result": "> 100", "unit": "µM"}, {"measurement": "TGI", "setting": "SNB-75 CNS", "result": "> 100", "unit": "µM"}, {"measurement": "TGI", "setting": "SNB-78 CNS", "result": "> 100", "unit": "µM"}, {"measurement": "TGI", "setting": "SF-539 CNS", "result": "> 100", "unit": "µM"}, {"measurement": "TGI", "setting": "OVCAR-5 ovarian", "result": "> 100", "unit": "µM"}, {"measurement": "TGI", "setting": "HL-60(TB) leukemia", "result": "> 100", "unit": "µM"}, {"measurement": "TGI", "setting": "IGROV1 ovarian", "result": "> 100", "unit": "µM"}, {"measurement": "TGI", "setting": "MALME-3M melanoma", "result": "> 100", "unit": "µM"}, {"measurement": "TGI", "setting": "SF-268 CNS", "result": "> 100", "unit": "µM"}, {"measurement": "TGI", "setting": "LOX IMVI melanoma", "result": "> 100", "unit": "µM"}, {"measurement": "TGI", "setting": "DMS 273 small cell lung", "result": "> 100", "unit": "µM"}, {"measurement": "TGI", "setting": "MOLT-4 leukemia", "result": "> 100", "unit": "µM"}, {"measurement": "TGI", "setting": "COLO 205 colon", "result": "> 100", "unit": "µM"}, {"measurement": "TGI", "setting": "EKVX NSCLC", "result": "> 100", "unit": "µM"}, {"measurement": "TGI", "setting": "DLD-1 colon", "result": "> 100", "unit": "µM"}, {"measurement": "TGI", "setting": "U251 CNS", "result": "> 100", "unit": "µM"}]}, {"compound": "CCCCC(NC(=O)CC)C(=O)O", "note": "(configuration not stated)", "values": [{"measurement": "TGI", "setting": "SK-MEL-2 melanoma", "result": "> 100", "unit": "µM"}, {"measurement": "TGI", "setting": "OVCAR-8 ovarian", "result": "> 100", "unit": "µM"}, {"measurement": "TGI", "setting": "SK-OV-3 ovarian", "result": "> 100", "unit": "µM"}, {"measurement": "TGI", "setting": "NCI-H460 lung", "result": "> 100", "unit": "µM"}, {"measurement": "TGI", "setting": "SNB-75 CNS", "result": "> 100", "unit": "µM"}, {"measurement": "TGI", "setting": "SNB-78 CNS", "result": "> 100", "unit": "µM"}, {"measurement": "TGI", "setting": "SF-539 CNS", "result": "> 100", "unit": "µM"}, {"measurement": "TGI", "setting": "OVCAR-5 ovarian", "result": "> 100", "unit": "µM"}, {"measurement": "TGI", "setting": "HL-60(TB) leukemia", "result": "> 100", "unit": "µM"}, {"measurement": "TGI", "setting": "CAKI-1 renal", "result": "> 100", "unit": "µM"}, {"measurement": "TGI", "setting": "IGROV1 ovarian", "result": "> 100", "unit": "µM"}, {"measurement": "TGI", "setting": "MALME-3M melanoma", "result": "> 100", "unit": "µM"}, {"measurement": "TGI", "setting": "SF-268 CNS", "result": "> 100", "unit": "µM"}, {"measurement": "TGI", "setting": "LOX IMVI melanoma", "result": "> 100", "unit": "µM"}, {"measurement": "TGI", "setting": "DMS 273 small cell lung", "result": "> 100", "unit": "µM"}, {"measurement": "TGI", "setting": "MOLT-4 leukemia", "result": "> 100", "unit": "µM"}, {"measurement": "TGI", "setting": "COLO 205 colon", "result": "> 100", "unit": "µM"}, {"measurement": "TGI", "setting": "EKVX NSCLC", "result": "> 100", "unit": "µM"}, {"measurement": "TGI", "setting": "DLD-1 colon", "result": "> 100", "unit": "µM"}, {"measurement": "TGI", "setting": "U251 CNS", "result": "> 100", "unit": "µM"}]}]}
